Assay results taken from patent US8846746B2, “Pyrazole compound and pharmaceutical use thereof” (Japan Tobacco Inc., priority 2011, dated 2014).

molecular target: human SGLT1 (Homo sapiens (Human), UniProt P13866); assay: SGLT1 inhibitory activity: 14C-AMG uptake into CHO-K1 cell line stably expressing human SGLT1; type: cell-based; conditions: 14C-AMG uptake, CHO-K1 cells expressing human SGLT1
Outline: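 CHO-K1 cells stably expressing human SGLT1 were pre-incubated 20 min in Na(−) buffer (pH 7.4). Test compound in Na(+) buffer with BSA was added with ¹⁴C-AMG (8 kBq) plus unlabelled AMG (2 mM in the added solution) for 1 h at 37 °C.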

Chain of human SGLT1 (P13866 whole entry): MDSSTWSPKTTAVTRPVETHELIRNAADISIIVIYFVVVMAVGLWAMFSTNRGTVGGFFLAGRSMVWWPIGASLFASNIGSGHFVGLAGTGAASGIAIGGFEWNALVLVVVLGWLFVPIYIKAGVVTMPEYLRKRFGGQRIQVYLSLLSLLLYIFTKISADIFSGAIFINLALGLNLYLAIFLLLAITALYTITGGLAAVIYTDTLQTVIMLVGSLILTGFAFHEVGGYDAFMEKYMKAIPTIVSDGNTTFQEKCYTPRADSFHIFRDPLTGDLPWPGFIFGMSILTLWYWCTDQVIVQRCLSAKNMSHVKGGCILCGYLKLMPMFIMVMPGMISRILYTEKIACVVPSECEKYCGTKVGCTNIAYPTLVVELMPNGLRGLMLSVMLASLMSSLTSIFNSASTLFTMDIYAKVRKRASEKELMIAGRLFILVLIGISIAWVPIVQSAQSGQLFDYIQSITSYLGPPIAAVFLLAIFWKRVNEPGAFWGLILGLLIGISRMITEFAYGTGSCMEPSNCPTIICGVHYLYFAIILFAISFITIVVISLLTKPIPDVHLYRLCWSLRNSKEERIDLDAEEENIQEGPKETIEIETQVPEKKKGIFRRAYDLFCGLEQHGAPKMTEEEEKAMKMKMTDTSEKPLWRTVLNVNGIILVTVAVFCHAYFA

Question: `O=C1C[C@@H](C(=O)Nc2cc(-c3cccc(OC(F)(F)F)c3)n(-c3ccccc3Cl)n2)CN1` [Example 130] was tested. Which IC50 did it give?
Answer: 1.3 nM

Question: With `Cc1ccc(-n2nc(NC(=O)[C@H]3CNC(=O)C3)cc2-c2cccc(OCC(F)(F)F)c2)cc1` [Example 216] as the molecule, how does the IC50 read?
Answer: 8.7 nM

same assay, conditions: 14C-AMG uptake, CHO-K1 cells stably expressing human SGLT1

Question: How did the IC50 turn out when `CCCc1cccc(-c2cc(NC(=O)[C@@H]3CNC(=O)C3)nn2-c2ccc(OC(F)(F)F)cc2)c1` [Example 386] was run?
Answer: 35 nM

Question: For `CCCc1cccc(-c2cc(NC(=O)[C@@H]3COC(=O)N3)nn2-c2ccccc2)c1` [Example 368], which IC50 is on record?
Answer: 56 nM

Question: How did the IC50 turn out when `COc1cc(F)cc(-n2nc(NC(=O)[C@@H]3CNC(=O)C3)cc2-c2cccc(COCC(F)(F)F)c2)c1` [Example 527] was run?
Answer: 8.5 nM

Question: `CCCc1cccc(-c2cc(NC(=O)[C@@H]3CNC(=O)C3)nn2-c2cccc(OCCCS(C)(=O)=O)c2)c1` [Example 492] was tested. Which IC50 did it give?
Answer: 19 nM

Question: Which IC50 does the source give for `O=C1NC[C@H](C(=O)Nc2cc(-c3cccc(OC(F)(F)F)c3)n(-c3ccccc3)n2)O1` [Example 264] here?
Answer: 39 nM

Question: Which IC50 does the source give for `C[C@@H](OCc1cccc(-c2cc(NC(=O)[C@H]3CNC(=O)N3)nn2-c2ccc(Cl)cc2)c1)C(F)(F)F` [Example 590] here?
Answer: 13 nM

Question: With `CCOCc1cccc(-c2cc(NC(=O)[C@@H]3CNC(=O)C3)nn2-c2ccccc2)c1` [Example 283] as the molecule, how does the IC50 read?
Answer: 110 nM

same assay, conditions: CHO-K1, at 0.3 uM

Question: `CC(C)S(=O)(=O)Cc1cccc(-c2cc(NC(=O)[C@@H]3CNC(=O)C3)nn2-c2ccccc2)c1` [Example 566] was tested. Which inhibition at 0.3 µM did it give?
Answer: 22%
